Results reported in patent US11337983B2, “Dactinomycin compositions and methods for the treatment of acute myeloid leukemia” (priority 2015, dated 2022).
Entries after “also recorded” stand apart in the source; their conditions may differ. *1 amine or outer side, *2 acyl side, *3 side chain or, on linkers, in order; H or OH if unused. Where a SMILES comes first, the peptide text is derived from it. Bridges are numbered along the chain shown (N, C = ends). Roman numbers before positions name the chains, in order. [ ]: non-standard residue; d: D form. Actinocin(9to1) = Cc1c2oc3c(C)ccc(C(=O)[*:1])c3nc-2c(C(=O)[*:2])c(N)c1=O; NMeV = CN[CH](C(=O)O)C(C)C; Sar = CNCC(=O)O

Legend:
Assay type in all cases: in vivo, human
[1] = tested on: NPM1-mutated AML without FLT3 internal tandem duplication mutations; test: Dactinomycin single-agent treatment of a patient with NPM1-mutated AML (response)
Description: (§1) A patient with NPM1-mutated AML without FLT3 internal tandem duplication mutations was treated with dactinomycin. Because dactinomycin lacks cardiotoxicity, a patient was selected for whom intensive chemotherapy was not appropriate owing to a low left ventricular ejection fraction (35%). […] Therefore, with the patient's consent, dactinomycin was administered as an off-label single agent (approved by the institutional review board at Perugia Hospital), at a dose of 12.5 μg per kilogram of body weight per day for 5 consecutive days, as recommended for low-risk gestational trophoblastic tumors. […] Four more cycles were administered for a total of six cycles, at intervals of 3 to 4 weeks.
The progressive decrease in NPM1 mutant transcripts (until the achievement of negativity for minimal residual disease) is reminiscent of dactinomycin-induced normalization of serum levels of human chorionic gonadotropin in patients with gestational trophoblastic tumors.

[2] = Adverse events and hematologic toxic effects during dactinomycin treatment of the patient
Description: as §1
The number of days with a hemoglobin level of less than 8 g per deciliter, severe thrombocytopenia (a platelet count of <20,000 per cubic millimeter), and severe neutropenia (a neutrophil count of <500 per cubic millimeter) are reported for cycles 1 through 6. A total of 8 units of red cells and 4 units of platelets were transfused during cycle 1, and 4 units of red cells and 1 unit of platelets were transfused during cycle 2.

[3] = tested on: refractory or relapsed NPM1-mutated AML; test: Dactinomycin treatment of six additional patients with refractory or relapsed NPM1-mutated AML; settings: 15.0 μg per kilogram per day for 5 consecutive days, cycles
Description: Six additional patients with refractory or relapsed NPM1-mutated AML were treated with cycles of dactinomycin at a dose of 15.0 μg per kilogram per day for 5 consecutive days.

[4] = after two cycles of dactinomycin

SMILES: Nc1ncn([C@@H]2O[C@H](CO)[C@@H](O)[C@H]2O)c(=O)n1 [azacitidine]
- Course of leukemia after prior therapy ([1]; initial single cycle of azacitidine, before dactinomycin): Leukemia had progressed

SMILES: Cc1c2oc3c(C)ccc(C(=O)NC4C(=O)NC(C(C)C)C(=O)N5CCCC5C(=O)N(C)CC(=O)N(C)C(C(C)C)C(=O)OC4C)c3nc-2c(C(=O)NC2C(=O)NC(C(C)C)C(=O)N3CCCC3C(=O)N(C)CC(=O)N(C)C(C(C)C)C(=O)OC2C)c(N)c1=O (stereo not shown) [dactinomycin, 2-amino-N,N′-bis(hexadecahydro-2,5,9-trimethyl-6,13-bis(1-methylethyl)-1,4,7,11,14-pentaoxo-1H-pyrrolo(2,1-I)(1,4,7,10,13)oxatetra-azacyclohexadecin-10-yl)-4,6-dimethyl-3-oxo-3H-phenoxazine-1,9-dicarboxamide] (I: TVP[Sar][NMeV] / II: TVP[Sar][NMeV]; ester I:1-I:C, II:1-II:C; linker I:N-II:N via Actinocin(9to1); configuration not given here)
- Need for red-cell or platelet transfusions ([2]; after cycle 2 (cycles 3 through 6)): no need for blood transfusions; also recorded: No red-cell or platelet transfusions were necessary
- Number of days with Hb <8 g/dl ([2]; cycle 1): 3 days
- Number of days with PLT <20000/mm^3 ([2]; cycle 1): 13 days
- Number of days with PMN <500/mm^3 ([2]; cycle 1): 26 days
- Platelets transfused ([2]; cycle 1): 4 units
- Red cells transfused ([2]; cycle 1): 8 units
- Number of days with Hb <8 g/dl ([2]; cycle 2): 3 days
- Number of days with PLT <20000/mm^3 ([2]; cycle 2): 2 days
- Number of days with PMN <500/mm^3 ([2]; cycle 2): 6 days
- Platelets transfused ([2]; cycle 2): 1 unit
- Red cells transfused ([2]; cycle 2): 4 units
- Number of days with Hb <8 g/dl ([2]; cycle 3): 0 days
- Number of days with PLT <20000/mm^3 ([2]; cycle 3): 0 days
- Number of days with PMN <500/mm^3 ([2]; cycle 3): 4 days
- Number of days with Hb <8 g/dl ([2]; cycle 4): 0 days
- Number of days with PLT <20000/mm^3 ([2]; cycle 4): 0 days
- Number of days with PMN <500/mm^3 ([2]; cycle 4): 4 days
- Number of days with Hb <8 g/dl ([2]; cycle 5): 0 days
- Number of days with PLT <20000/mm^3 ([2]; cycle 5): 0 days
- Number of days with PMN <500/mm^3 ([2]; cycle 5): 4 days
- Number of days with Hb <8 g/dl ([2]; cycle 6): 0 days
- Number of days with PLT <20000/mm^3 ([2]; cycle 6): 0 days
- Number of days with PMN <500/mm^3 ([2]; cycle 6): 3 days
- Skin adverse event ([2]; during cycle 2): superficial skin erosions
- Febrile neutropenia and thrombocytopenia (adverse event grade) ([2]; during cycles 1 and 2): 4 grade
- Oral mucositis (adverse event grade) ([2]; during cycles 1 through 3): 2 grade
- Hematologic complete remission (patients of six treated) [3]: achieved in two patients
- Morphologic and immunohistochemical (hematologic) complete remission ([1]; 12.5 μg per kilogram per day for 5 consecutive days per cycle, patient): hematologic complete remission; also recorded: complete remission was achieved after two cycles of therapy
- Immunostaining with anti-NPM1 monoclonal antibody of bone marrow cells [1, 4]: nucleus-restricted positivity for NPM1
- Leukemic blasts in bone marrow aspirate (MGG staining) [1, 4]: less than 5%
- Molecular complete remission / negativity for minimal residual disease (quantitative RT-PCR for mutant copies of NPM1) ([1]; bone marrow samples, 12.5 μg/kg/day x 5 days per cycle): Negativity for minimal residual disease was achieved after the fourth cycle; also recorded: molecular complete remission after the fourth cycle
- Mutant copies of NPM1 in bone marrow samples (RT-PCR, copies per 100 copies of Abl) ([1]; during dactinomycin treatment): progressive reduction in copies
- Duration of morphologic and molecular complete remission ([1]; six cycles at intervals of 3 to 4 weeks): 14 months
